Assay results as given in PMC6277767, “Broad and Region-Specific Impacts of the Synthetic Cannabinoid CP 55,940 in Adolescent and Adult Female Mouse Brains” (Frontiers in Molecular Neuroscience, 2018).

Test system: CD1 female mouse brain lipidome
Assay: Brain-region lipid levels (HPLC/MS/MS lipidomics) 2 h after single i.p. 3 mg/kg CP 55,940 vs vehicle
Format: in vivo
Set-up: N-arachidonoyl phenylalanine level, Mean / N-stearoyl tryptophan level, Mean / N-stearoyl proline level, Mean / N-stearoyl leucine level, Mean / N-stearoyl phenylalanine level, Mean / N-stearoyl serine level, Mean / N-stearoyl methionine level, Mean: unit: moles per gram
Conditions: striatum
Method: The Bloomington Institutional Animal Care and Use Committee of Indiana University reviewed and approved the animal procedures. Female mice from the CD1 strain were utilized to match our study examining THC’s effects on the brain lipidome ([Leishman et al., 2018]). Mice were given a single i.p. injection of either 3 mg/kg CP or 1:1:18 cremophor:ethanol:saline vehicle (please refer to the section “3 mg/kg CP Is Relevant for Synthetic Cannabinoid Abuse and Has Stronger Effects on the Female Mouse Brain Lipidome During Adolescence” for a justification of dose and use of female mice). Three different age groups were given injections: PND 35 and PND 50 adolescents, and adult mice (PND 113). At least eight mice in each age group received CP and at least eight received vehicle. Matching the THC study time course ([Leishman et al., 2018]), mice were sacrificed via rapid decapitation 2 h after injection. Brains were immediately removed and flash-frozen in liquid nitrogen, and then stored at -80°C until dissections were performed. Brains were dissected on an ice-cold dissection plate into the following regions: STR, HIPP, CER, THAL, CTX, HYP, MID, and STEM. These abbreviations for these brain areas will be used exclusively when discussing the results generated by these specific dissections. Each dissected area was immediately placed in liquid nitrogen and then stored at -80°C until used for lipid extraction.
Tissue extracts were performed as previously described ([Bradshaw et al., 2006]; [Stuart et al., 2013]; [Raboune et al., 2014]; [Leishman et al., 2016a],[b], [2017], [2018]). First, samples were shock frozen in liquid nitrogen, weighed, and transferred to a centrifuge tube. The mass of the largest sample was multiplied by 50 to determine how many milliliters of HPLC-grade methanol (Fisher, Fair Lawn, NJ, United States) to add. Then, samples were spiked with 500 pmol deuterium-labeled NAGly (d8NAGly; Cayman Chemical, Ann Arbor, MI, United States). Samples were placed on ice in darkness for 2 h then individually homogenized and centrifuged at 19,000 × g for 20 min at 20°C. Supernatants were diluted with HPLC water (purified in house) to make a solution of 75% water, 25% supernatant. Lipids were partially purified on C18 solid phase extraction columns (Agilent, Palo Alto, CA, United States). A series of four elutions with 1.5 mL of 60%, 75%, 85%, and 100% methanol were collected ([Stuart et al., 2013]; [Leishman et al., 2016a],[b], [2018]).
As previously described ([Bradshaw et al., 2006]; [Tan et al., 2006]; [Smoum et al., 2010]; [Stuart et al., 2013]; [Tortoriello et al., 2013]; [Raboune et al., 2014]; [Leishman et al., 2016a],[b], [2017], [2018]), samples were analyzed using an Applied Biosystems API 3000 triple quadrupole mass spectrometer with electrospray ionization (Foster City, CA, United States). Using an Agilent XDB-C18 reversed phase analytical column and optimized mobile phase gradients, 20 μL from each elution were chromatographed. Two Shimadzu 10ADvp pumps (Columbia, MD, United States) provided the pressure for gradient elution. Mobile phase A: 20% methanol, 80% water (v/v) and 1 mM ammonium acetate (Sigma, St. Louis, MO, United States). Mobile phase B: 100% methanol, 1 mM ammonium acetate. Every method run began with 0% mobile phase B, reached 100% mobile phase B flowing at 0.2 mL/min, and gradually returned to 0% mobile phase B.
This screening library will be referred to as the lipidome when discussing data from this study. HPLC/MS/MS data were analyzed using Analyst software (Applied Biosystems) ([Bradshaw et al., 2006]; [Tan et al., 2006]; [Stuart et al., 2013]; [Tortoriello et al., 2013]; [Raboune et al., 2014]; [Leishman et al., 2016a],[b], [2017], [2018]). Chromatograms (Supplementary Figure 3) were generated by determining the retention time of analytes from the analytical column with a [M-1] or [M+1] parent peak and a fragmentation peak corresponding to the programmed values. […]

[1] = PND 50 female mice, 3mg/kg CP 55,940, mean

## CCCCCCC(C)(C)c1ccc([C@@H]2C[C@H](O)CC[C@H]2CCCO)c(O)c1 [CP 55,940]
[1]
  N-palmitoyl valine level: 1.79E-13
  N-stearoyl GABA level: 3.86E-12
  N-stearoyl alanine level: 6.45E-13
  N-stearoyl ethanolamine level: 2.79E-11
  N-stearoyl glycine level: 4.91E-13
  N-stearoyl leucine level: 1.1E-12
  N-stearoyl methionine level: 8.01E-13
  N-stearoyl phenylalanine level: 1.27E-12
  N-stearoyl proline level: BDL
  N-stearoyl serine level: 5.13E-11
  N-stearoyl tryptophan level: BDL
  N-stearoyl tyrosine level: 9.9E-14
  Oleic acid level: 2.17E-10
  PGE2 level: 7.65E-11
  PGF2α level: 9.33E-11
  THC level: BDL
adult, 3 mg/kg CP 55,940
  2-arachidonoyl-sn-glycerol level, Mean: 1.6E-09
  2-linoleoyl-sn-glycerol level, Mean: 1.72E-10
  2-oleoyl-sn-glycerol level, Mean: 1.58E-09
  2-palmitoyl-sn-glycerol level, Mean: 1.51E-10
  6-ketoPGF1α level, Mean: PISSR
  11-OH-THC level, Mean: BDL
  11-nor-9-carboxyTHC level, Mean: BDL
  Arachidonic acid level, Mean: 1.93E-09
  Cannabidiol level, Mean: BDL
  Linoleic acid level, Mean: 7.69E-10
  N- stearoyl valine level, Mean: PISSR
  N-arachidonoyl GABA level, Mean: 2.43E-11
  N-arachidonoyl alanine level, Mean: 2.03E-12
  N-arachidonoyl dopamine level, Mean: BDL
  N-arachidonoyl ethanolamine level, Mean: 2.19E-11
  N-arachidonoyl glycine level, Mean: 6.38E-13
  N-arachidonoyl methionine level, Mean: BDL
  N-arachidonoyl phenylalanine level, Mean: 9.64E-14
  N-arachidonoyl proline level, Mean: BDL
  N-arachidonoyl serine level, Mean: PISSR
  N-arachidonoyl taurine level, Mean: 9.74E-11
  N-arachidonoyl tryptophan level, Mean: BDL
  N-arachidonoyl tyrosine level, Mean: PISSR
  N-docosahexaenoyl GABA level, Mean: PISSR
  N-docosahexaenoyl alanine level, Mean: BDL
  N-docosahexaenoyl ethanolamine level, Mean: 2.36E-11
  N-docosahexaenoyl glycine level, Mean: PISSR
  N-docosahexaenoyl leucine level, Mean: PISSR
  N-docosahexaenoyl methionine level, Mean: BDL
  N-docosahexaenoyl phenylalanine level, Mean: PISSR
  N-docosahexaenoyl proline level, Mean: BDL
  N-docosahexaenoyl serine level, Mean: PISSR
  N-docosahexaenoyl tryptophan level, Mean: BDL
  N-docosahexaenoyl tyrosine level, Mean: PISSR
  N-docosahexaenoyl valine level, Mean: BDL
  N-linoleoyl GABA level, Mean: PISSR
  N-linoleoyl alanine level, Mean: PISSR
  N-linoleoyl ethanolamine level, Mean: 3.83E-11
  N-linoleoyl glycine level, Mean: PISSR
  N-linoleoyl leucine level, Mean: PISSR
  N-linoleoyl methionine level, Mean: BDL
  N-linoleoyl phenylalanine level, Mean: PISSR
  N-linoleoyl proline level, Mean: BDL
  N-linoleoyl serine level, Mean: 1.09E-10
  N-linoleoyl tryptophan level, Mean: BDL
  N-linoleoyl tyrosine level, Mean: BDL
  N-linoleoyl valine level, Mean: PISSR
  N-nervonoyl valine level, Mean: BDL
  N-oleoyl GABA level, Mean: 1.7E-11
  N-oleoyl alanine level, Mean: 3.96E-12
  N-oleoyl dopamine level, Mean: BDL
  N-oleoyl ethanolamine level, Mean: 1.57E-10
  N-oleoyl glycine level, Mean: 5.26E-13
  N-oleoyl leucine level, Mean: 1.99E-12
  N-oleoyl methionine level, Mean: PISSR
  N-oleoyl phenylalanine level, Mean: 4.84E-13
  N-oleoyl proline level, Mean: BDL
  N-oleoyl serine level, Mean: 5.05E-10
  N-oleoyl tryptophan level, Mean: BDL
  N-oleoyl tyrosine level, Mean: PISSR
  N-oleoyl valine level, Mean: PISSR
  N-palmitoyl GABA level, Mean: 2.94E-11
  N-palmitoyl alanine level, Mean: 3.83E-12
  N-palmitoyl ethanolamine level, Mean: 7.87E-11
  N-palmitoyl glycine level, Mean: 2.5E-12
  N-palmitoyl leucine level, Mean: 3E-12
  N-palmitoyl methionine level, Mean: PISSR
  N-palmitoyl phenylalanine level, Mean: 3.31E-13
  N-palmitoyl proline level, Mean: PISSR
  N-palmitoyl serine level, Mean: 4.99E-11
  N-palmitoyl tryptophan level, Mean: BDL
  N-palmitoyl tyrosine level, Mean: 2.47E-12
  N-palmitoyl valine level, Mean: PISSR
  N-stearoyl GABA level, Mean: 2.26E-11
  N-stearoyl alanine level, Mean: 4.15E-12
  N-stearoyl ethanolamine level, Mean: 3.49E-11
  N-stearoyl glycine level, Mean: 3.37E-12
  N-stearoyl leucine level, Mean: 3.52E-12
  N-stearoyl phenylalanine level, Mean: 4.25E-13
  N-stearoyl proline level, Mean: BDL
  N-stearoyl serine level, Mean: PISSR
  N-stearoyl tryptophan level, Mean: BDL
  Oleic acid level, Mean: 1.22E-09
  PGE2 level, Mean: 2.64E-10
  PhosphoLEA level, Mean: 2.11E-11
  THC level, Mean: BDL
